Test results as given in patent US9663551B2, “Solanidine-derived compounds” (priority 2013, dated 2017).
“And” between values parts separate entries of the source, which are not always exact repeats. Equal values may be shown once.

Legend:
Assay type in all cases: in vivo
[1] = system: Macrosiphum euphorbiae larvae; experiment: Effects on larval survival (artificial medium feeding); settings: for Percentage of larval survival: after 16 days of treatment; for aphicide activity on larvae compared with 0.2 mM solanidine: 0.002 mM; for aphicide properties with respect to larvae compared with solanidine: 0.02 mM
Procedure: (§1) The Macrosiphum euphorbiae population was initiated from an apterous female provided by the Laboratory of Functional Biology, Insects and Interactions of the INRA/INSA of Villeurbanne in 2004. She was captured in 1995 on an eggplant in the Rhone-Alps region. The Macrosiphum euphorbiae aphids were raised on Desiree variety potato plants indoors at 20±1° C., 60±5% relative humidity and under a photoperiod of 16 hours of light and 8 hours of darkness.
For the tests on Macrosiphum euphorbiae larvae, adults were isolated and placed in PVC cages on artificial medium for one day in order to synchronize their lineage. Neonates (40 per experiment), less than 24 hours old, are placed in PVC cages containing artificial medium alone (control experiment) or artificial medium supplemented with 0.002, 0.02 or 0.2 mM active compound.
(§2) The individuals were monitored every two days over a period of 16 days. With each recording, the artificial medium is changed. Each cage houses five aphids.
(§3) A standard diet was used as the basis for carrying out the physiological monitoring. Its composition was described by Febvay et al. (J. Zool. 1988, 66(11), 2449-2453) and then modified according to the conditions of Down et al. (J. Insect Physiol. 1996, 42(11-12), 1035-1045) as shown in Table 2. The medium is supplemented with active compound and placed between two layers of Parafilm® in sterile conditions.
(§4) The statistical analyses were performed using the Statistica 10 software (StatSoft®). To compare aphid survival in comparison with the control, Pearson's X^2 test (α<0.05) was applied. To compare the compounds in terms of concentration and nature, Fisher's least significant difference (LSD) test was applied (α<0.05). Daily fecundity was also studied using Fisher's LSD test (α<0.05).
The biological tests were carried out on Macrosiphum euphorbiae neonates less than 24 hours old. They are placed on artificial medium containing chaconine, solanine, solanidine, 100, 101 or 102.

[2] = system: Macrosiphum euphorbiae adults; experiment: Effects on adult survival (artificial medium feeding); settings: for Percentage of adult survival: after 16 days of treatment
Procedure: as §1
(§5) For the tests on Macrosiphum euphorbiae adults, neonates (50 per experiment) resulting from synchronization are raised in petri dishes on leaves of Desiree variety potato plants for 10 days. Once the adult stage is reached, they are placed in PVC cages containing artificial medium alone (control experiment) or artificial medium supplemented with 0.002, 0.02 or 0.2 mM active compound.
as §2, §3, §4
The biological tests of compounds 100, 101 and 102 on Macrosiphum euphorbiae adults are presented in FIG. 2, and are compared to a control experiment.

[3] = system: Macrosiphum euphorbiae reproduction; experiment: Effects on reproduction (daily fecundity per aphid)
Procedure: as §5, §2, §4
Data regarding the number of larvae resulting from parthenogenesis can be used to calculate daily fecundity per aphid. The results are presented in FIG. 3, wherein the number 10 represents the control, the reference numbers 12, 14 and 16 represent the results of compound 100 at the concentrations of 0.002, 0.02 and 0.2 mM, respectively, the reference numbers 18, 20 and 22 represent the results of compound 101 at the concentrations of 0.002, 0.02 and 0.2 mM, respectively, the reference numbers 24, 26, and 28 represent the results of compound 102 at the concentrations of 0.002, 0.02 and 0.2 mM, respectively.

**Q.** Which “Percentage of larval survival” value ([1]; 0.002 mM in artificial medium) does the source give for `C[C@H]1CC[C@@H]2[C@@H](C)[C@H]3[C@H](C[C@H]4[C@@H]5CC=C6C[C@@H](O[C@@H]7O[C@H](CO)[C@H](O[C@@H]8O[C@@H](C)[C@H](O)[C@@H](O)[C@H]8O)[C@H](O)[C@@H]7O[C@@H]7O[C@@H](C)[C@@H](O)[C@@H](O)[C@H]7O)CC[C@]6(C)[C@H]5CC[C@]34C)N2C1` [Chaconine, chaconine, reference compound] here?
**A.** 72a %

**Q.** What about the “Percentage of larval survival” value ([1]; 0.02 mM in artificial medium) of the same compound?
**A.** 70a %

**Q.** And the “Percentage of larval survival” value ([1]; 0.2 mM in artificial medium)?
**A.** 52b %

**Q.** With `C[C@H]1CCC2[C@@H](C)C3C(CC4C5CC=C6C[C@@H](OCCCn7cc(CO[C@@H]8OC(CO)[C@@H](O)C(O)C8O)nn7)CC[C@]6(C)C5CC[C@@]43C)N2C1` (stereo partly drawn) [Compound 100, 3-O-{3-[4-(β-D-glucopyranosyloxymethyl)-1,2,3-triazol-1-yl]propyl}solanidine] as the compound, how does the “aphicide activity on larvae compared with 0.2 mM solanidine” value [1] read?
**A.** lower activity than 0.2 mM solanidine

**Q.** And the “Percentage of larval survival” value ([1]; 0.002 mM in artificial medium)?
**A.** 76a %

**Q.** And the “aphicide properties with respect to larvae compared with solanidine” value (from here on “aphicide properties … compared with solanidine”) [1]?
**A.** stronger than with solanidine

**Q.** What about the “Percentage of larval survival” value ([1]; 0.02 mM in artificial medium) of the same compound?
**A.** 26% and 26b %

**Q.** And the “Percentage of larval survival” value ([1]; 0.2 mM in artificial medium)?
**A.** 22% and 22c %

**Q.** What about the “activity on adult survival in comparison with the control” value (“activity on adult survival” for short) ([2]; 0.002 mM) of the same compound?
**A.** no significant activity

**Q.** And the “Percentage of adult survival” value ([2]; 0.002 mM in artificial medium)?
**A.** 97a %

**Q.** And the “activity on adult survival” value ([2]; 0.02 mM)?
**A.** no significant activity

**Q.** What about the “Percentage of adult survival” value ([2]; 0.02 mM in artificial medium) of the same compound?
**A.** 81b %

**Q.** What about the “activity on adult survival” value ([2]; 0.2 mM) of the same compound?
**A.** notable effect

**Q.** What about the “Percentage of adult survival” value ([2]; 0.2 mM in artificial medium) of the same compound?
**A.** 46c %

**Q.** And the mortality at 200 µM ([2]; Macrosiphum euphorbiae, 0.2 mM, read-out: mortality rate of adults)?
**A.** 54%

**Q.** What about the “effect on reproduction in comparison with the control” value (“effect on reproduction in comparison” for short) ([3]; 0.02 mM) of the same compound?
**A.** significantly reduce reproduction

**Q.** And the “effect on reproduction in comparison” value ([3]; 0.2 mM)?
**A.** significantly reduce reproduction

**Q.** Which “aphicide activity on larvae compared with 0.2 mM solanidine” value [1] does the source give for `C[C@H]1CCC2[C@@H](C)C3C(CC4C5CC=C6C[C@@H](OCCCn7cc(CO[C@@H]8OC(CO)[C@H](O)C(O)C8O)nn7)CC[C@]6(C)C5CC[C@@]43C)N2C1` (stereo partly drawn) [Compound 101, 3-O-{3-[4-(β-D-galactopyranosyloxymethyl)-1,2,3-triazol-1-yl]propyl}solanidine] here?
**A.** lower activity than 0.2 mM solanidine

**Q.** What about the “Percentage of larval survival” value ([1]; 0.002 mM in artificial medium) of the same compound?
**A.** 62a %

**Q.** And the “aphicide properties … compared with solanidine” value [1]?
**A.** stronger than with solanidine

**Q.** And the “Percentage of larval survival” value ([1]; 0.02 mM in artificial medium)?
**A.** 33% and 33b %

**Q.** And the “Percentage of larval survival” value ([1]; 0.2 mM in artificial medium)?
**A.** 24% and 24c %

**Q.** What about the “Percentage of adult survival” value ([2]; 0.002 mM in artificial medium) of the same compound?
**A.** 90a %

**Q.** What about the “activity on adult survival” value ([2]; 0.02 mM) of the same compound?
**A.** drop in the survival rate

**Q.** What about the “Percentage of adult survival” value ([2]; 0.02 mM in artificial medium) of the same compound?
**A.** 73b %

**Q.** What about the “activity on adult survival” value ([2]; 0.2 mM) of the same compound?
**A.** drop in the survival rate

**Q.** What about the “Percentage of adult survival” value ([2]; 0.2 mM in artificial medium) of the same compound?
**A.** 54c %

**Q.** And the “effect on reproduction in comparison” value ([3]; 0.02 mM)?
**A.** significantly reduce reproduction

**Q.** What about the “effect on reproduction in comparison” value ([3]; 0.2 mM) of the same compound?
**A.** significantly reduce reproduction

**Q.** `CC1O[C@@H](OCc2cn(CCCO[C@H]3CC[C@@]4(C)C(=CCC5C6CC7C([C@H](C)C8CC[C@H](C)CN78)[C@@]6(C)CCC54)C3)nn2)C(O)C(O)[C@H]1O` (stereo partly drawn) [Compound 102, 3-O-{3-[4-(α-L-rhamnopyranosyloxymethyl)-1,2,3-triazol-1-yl]propyl}solanidine] was tested. Which “aphicide activity on larvae compared with 0.2 mM solanidine” value [1] did it give?
**A.** lower activity than 0.2 mM solanidine

**Q.** What about the “Percentage of larval survival” value ([1]; 0.002 mM in artificial medium) of the same compound?
**A.** 84a %

**Q.** What about the “aphicide properties … compared with solanidine” value [1] of the same compound?
**A.** stronger than with solanidine

**Q.** And the “Percentage of larval survival” value ([1]; 0.02 mM in artificial medium)?
**A.** 32% and 32b %

**Q.** What about the “Percentage of larval survival” value ([1]; 0.2 mM in artificial medium) of the same compound?
**A.** 6% and 6d %

**Q.** And the “activity on adult survival” value ([2]; 0.002 mM)?
**A.** no significant aphicide activity

**Q.** What about the “Percentage of adult survival” value ([2]; 0.002 mM in artificial medium) of the same compound?
**A.** 95a %

**Q.** And the “activity on adult survival” value ([2]; 0.02 mM)?
**A.** marked effect on the survival of adults

**Q.** And the “Percentage of adult survival” value ([2]; 0.02 mM in artificial medium)?
**A.** 67b %

**Q.** And the “activity on adult survival” value ([2]; 0.2 mM)?
**A.** marked effect on the survival of adults

**Q.** What about the “Percentage of adult survival” value ([2]; 0.2 mM in artificial medium) of the same compound?
**A.** 7d %

**Q.** What about the “effect on reproduction in comparison” value ([3]; 0.02 mM) of the same compound?
**A.** significantly reduce reproduction

**Q.** And the “effect on reproduction in comparison” value ([3]; 0.2 mM)?
**A.** significantly reduce reproduction

**Q.** Which “Percentage of larval survival” value ([1]; 0.002 mM in artificial medium) does the source give for `C[C@H]1CC[C@@H]2[C@@H](C)[C@H]3[C@H](C[C@H]4[C@@H]5CC=C6C[C@@H](O)CC[C@]6(C)[C@H]5CC[C@]34C)N2C1` [Solanidine, solanidine] here?
**A.** 74a %

**Q.** What about the “Percentage of larval survival” value ([1]; 0.02 mM in artificial medium) of the same compound?
**A.** 60d %

**Q.** And the “Percentage of larval survival” value ([1]; 0.2 mM in artificial medium)?
**A.** 52b %

**Q.** For `C[C@H]1CC[C@@H]2[C@@H](C)[C@H]3[C@H](C[C@H]4[C@@H]5CC=C6C[C@@H](O[C@@H]7O[C@H](CO)[C@H](O)[C@H](O[C@@H]8O[C@H](CO)[C@@H](O)[C@H](O)[C@H]8O)[C@H]7O[C@H]7O[C@@H](C)[C@H](O)[C@@H](O)[C@H]7O)CC[C@]6(C)[C@H]5CC[C@]34C)N2C1` [Solanine, solanine, reference compound], which “Percentage of larval survival” value ([1]; 0.002 mM in artificial medium) is on record?
**A.** 82a %

**Q.** And the “Percentage of larval survival” value ([1]; 0.02 mM in artificial medium)?
**A.** 80a %

**Q.** What about the “Percentage of larval survival” value ([1]; 0.2 mM in artificial medium) of the same compound?
**A.** 64c %
